The test system of one experiment is male Sprague Dawley rats. Kind of experiment: Blockade of RAMH-induced drinking assay. The settings on record: rat, 0.3 mg/kg PO, RAMH 3 mg/kg SC, drinking 20 min. The format is in vivo. As for the experimental part:
When administered to rodents, H3 agonists such as R-α-methyl-histamine (RAMH) induce a drinking response that is sensitive to reversal with an H3 antagonist. Blockade of RAMH-induced drinking can therefore be utilized as an in vivo assay for functional H3 antagonist activity. In this assay, male Sprague Dawley rats (250-350 g) were housed three per cage and maintained under a reverse 12 h light cycle (lights off at 1130 h). At 1030 h on the day of test, rats were individually housed in new cages and food was removed. 120 min later, rats were administered test article (vehicle or H3 antagonist, 0.3 mg/kg PO). 30 min later, water was removed, and RAMH (vehicle or RAMH 3 mg/kg salt SC) was administered. 10 min after administration of RAMH, weighed water bottles were placed in the cages, and drinking was allowed for 20 min. Water consumption was determined for each animal by weighing each bottle to the nearest 0.1 g. Data is expressed as percentage reduction in water intake according to the following formula:
[1−[(ANTAGONIST/RAMH)−(VEHICLE/RAMH)/(VEHICLE/RAMH)−(VEHICLENEHICLE)]]*100

Experiment [1] concerns the target T1, human histamine H3-receptor (Homo sapiens, UniProt Q9Y5N1).
T1 construct: purchased MDS Pharma Services (Taiwan) 239810
The experiment in a line: Human histamine H3-receptor binding assay, MDS Pharma Services (Taiwan), Catalogue No. 239810. As to the method: Compounds of the invention were tested for their ability to bind to the human histamine H3-receptor using the MDS Pharma Services (Taiwan) assay, Catalogue No. 239810.

In a further experiment the target is Histamine H3-receptor (Rattus norvegicus, UniProt Q9QYN8). The experiment in a line: [3H]N-alpha-methyl-histamine competitive histamine H3-receptor binding assay (rat brain cortex membranes). Particulars: whole rat brain cortex membranes, [3H]-N-α-methyl-histamine 1 nM. As to the method:
The histamine receptor binding assay was conducted using standard laboratory procedures as described below. A crude membrane fraction was prepared from whole rat brain cortex using a polytron to homogenize the tissue followed by differential centrifugation in a HEPES-based buffer containing protease inhibitors. Membranes where frozen at −80° C. until needed. Frozen membranes were thawed and resuspended in ice-cold assay buffer consisting of 50 mM TRIS containing 5 mM EDTA (pH=7.4). 50 micrograms (μg) of membrane protein was added to each well of a 96-well assay plate along with test compound and [^3H]-N-α-methyl-histamine (1 nanomolar (nM) final assay concentration). Imetit was used as an assay positive control at varying concentrations. The plate was incubated for 30 min at room temperature. The assay was terminated by rapid filtration through a 96-well glass fiber filtration plate (GF/C) using a cell harvester (Perkin-Elmer). Captured membranes were washed three times with cold assay buffer and plates were dried at 50° C. 35 microliters (μL) of scintillation cocktail was added to each well and membrane-bound radioactivity was recorded using a TopCount 96-well plate scintillation counter (Perkin-Elmer).

Another experiment relates to Male Sprague-Dawley rats. The experiment in a line: Rat polysomnography (EEG/EMG wakefulness). Type of experiment: in vivo. Particulars: over 1 h after oral administration at 0.6 mg/kg. As to the method: Animals: Male Sprague-Dawley rats (225-350 g) (Harlan, San Diego, Calif.) were singly housed and maintained in a humidity—(30-70%) and temperature—(20-22° C.) controlled facility on a 12 h:12 h light/dark cycle (lights on at 6:30 A.M.) with free access to food (Harlan-Teklad Western Res., Orange, Calif., Rodent Diet 8604) and water. Rats were allowed at least three days of habituation to the animal facility before surgery.
Rats were anaesthetized with a ketamine/xylazine mixture, and surgically prepared for
EEG and EMG recording. After 2-3 weeks of post-surgical recovery, rats were habituated to polypropylene test cages for at least three days. On test days, the rats were placed in the test chambers and habituated overnight. At 10 am the next day, the rats were administered the test compound, connected to the recording apparatus, and placed back into the test chambers for 3 h.
EEG and EMG data were digitized and stored in 10 s epochs over the three hour test period. […] […] Percent increase in wakefulness was then derived for each rat.

Chain of Histamine H3-receptor (Q9QYN8 1-397 isoform Q9QYN8-3): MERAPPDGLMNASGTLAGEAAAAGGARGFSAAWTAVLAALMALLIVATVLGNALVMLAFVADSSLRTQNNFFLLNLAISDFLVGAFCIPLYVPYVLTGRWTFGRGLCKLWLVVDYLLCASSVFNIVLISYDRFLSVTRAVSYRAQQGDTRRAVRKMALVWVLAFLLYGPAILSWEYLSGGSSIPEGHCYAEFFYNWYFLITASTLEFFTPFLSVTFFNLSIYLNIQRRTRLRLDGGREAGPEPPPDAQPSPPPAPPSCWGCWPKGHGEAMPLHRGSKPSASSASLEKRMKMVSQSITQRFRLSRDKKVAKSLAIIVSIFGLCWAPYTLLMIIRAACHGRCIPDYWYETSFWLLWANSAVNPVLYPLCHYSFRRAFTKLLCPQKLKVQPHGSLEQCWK
T1 sequence (Q9Y5N1 whole entry): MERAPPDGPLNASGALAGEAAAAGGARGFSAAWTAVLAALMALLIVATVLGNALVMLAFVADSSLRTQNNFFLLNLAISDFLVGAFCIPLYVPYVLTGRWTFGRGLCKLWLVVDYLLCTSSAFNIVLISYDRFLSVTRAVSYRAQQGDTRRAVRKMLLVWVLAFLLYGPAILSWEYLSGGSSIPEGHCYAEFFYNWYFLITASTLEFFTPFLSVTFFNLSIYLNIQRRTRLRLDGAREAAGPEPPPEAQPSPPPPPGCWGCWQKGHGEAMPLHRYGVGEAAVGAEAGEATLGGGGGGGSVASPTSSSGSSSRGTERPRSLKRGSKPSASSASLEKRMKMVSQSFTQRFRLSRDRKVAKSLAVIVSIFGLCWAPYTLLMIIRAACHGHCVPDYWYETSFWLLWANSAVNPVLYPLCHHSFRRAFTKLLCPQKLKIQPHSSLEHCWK

As for `CCS(=O)(=O)c1ccc(-c2ccc(CCN3CCC[C@H]3C)cc2)cc1` [Cmpd 2, (R)-1-[2-(4′-Ethanesulfonyl-biphenyl-4-yl)-ethyl]-2-methyl-pyrrolidine], in the experiment on male Sprague Dawley rats, the “% inhibition of RAMH-induced drinking” value amounted to 82.6 ± 12.9%.

In turn, `C[C@@H]1CCCN1CCc1ccc(-c2ccc3c(c2)C(=O)CCS3(=O)=O)cc1` [Cmpd 7, 6-{4-[2-((R)-2-Methyl-pyrrolidin-1-yl)-ethyl]-phenyl}-1,1-dioxo-1λ^6-thiochroman-4-one] displayed a Ki in experiment [1] of 2.9 nM. The “% inhibition of RAMH-induced drinking” value with male Sprague Dawley rats is given as 92.5 ± 15.8%.

Compound `COCCS(=O)(=O)c1ccc(-c2ccc(CCN3CCC[C@H]3C)cc2)cc1` [Cmpd 3, (R)-1-{2-[4′-(2-Methoxy-ethanesulfonyl)-biphenyl-4-yl]-ethyl}-2-methyl-pyrrolidine] registered a Ki on Histamine H3-receptor of 3 nM.

At Histamine H3-receptor, `C[C@@H]1CCCN1CCc1ccc(-c2ccc(S(C)(=O)=O)cc2)cc1` [Cmpd 1, (R)-1-[2-(4′-Methanesulfonyl-biphenyl-4-yl)-ethyl]-2-methyl-pyrrolidine] had a Ki of 2.4 nM.

`C[C@@H]1CCCN1CCc1ccc(-c2ccc(S(=O)(=O)CCCO)cc2)cc1` [Cmpd 15, 3-{4′-(2-((R)-2-Methyl-pyrrolidin-1-yl)-ethyl]-biphenyl-4-sulfonyl}-propan-1-ol]: the “% inhibition of RAMH-induced drinking” value with male Sprague Dawley rats was found to be 58.8 ± 16.1%.

As for `C[C@@H]1CCCN1CCc1ccc(-c2ccc(S(=O)(=O)CCO)cc2)cc1` [Cmpd 10, 2-{4′-[2-((R)-2-Methyl-pyrrolidin-1-yl)-ethyl]-biphenyl-4-sulfonyl}-ethanol], the “% Increase in wakefulness +/− s.e.” value in the experiment on Male Sprague-Dawley rats was 46 ± 15%.

At Histamine H3-receptor, `C[C@@H]1CCCN1CCc1ccc(-c2ccc(S(=O)(=O)Cc3ccccc3)cc2)cc1` [Cmpd 6, (R)-2-Methyl-1-[2-(4′-phenylmethanesulfonyl-biphenyl-4-yl)-ethyl]-pyrrolidine] registered a Ki of 1.1 nM.

For `CCCS(=O)(=O)c1ccc(-c2ccc(CCN3CCC[C@H]3C)cc2)cc1` [Cmpd 5, (R)-2-Methyl-1-{2-[4′-(propane-1-sulfonyl)-biphenyl-4-yl]-ethyl}-pyrrolidine], affinity in experiment [1] was put at a Ki of 3.7 nM.

Take `C[C@@H]1CCCN1CCc1ccc(-c2cccc(S(=O)(=O)CCO)c2)cc1` [Cmpd 17, 2-{4′-[2-((R)-2-Methyl-pyrrolidin-1-yl)-ethyl]-biphenyl-3-sulfonyl}-ethanol]: the Ki on Histamine H3-receptor stood at 16 nM.

In the case of `COCCCS(=O)(=O)c1ccc(-c2ccc(CCN3CCC[C@H]3C)cc2)cc1` [Cmpd 8, (R)-1-{2-[4′-(3-Methoxy-propane-1-sulfonyl)-biphenyl-4-yl]-ethyl}-2-methyl-pyrrolidine], the affinity at Histamine H3-receptor, expressed as Ki, was 1.5 nM.

In general, Ki refers to the equilibrium dissociation constant of an inhibitor or competing ligand from its target.

Source of the values: patent publication US20100240653A1, “BIPHENYL SULFONYL AND PHENYL-HETEROARYL SULFONYL MODULATORS OF THE HISTAMINE H3-RECEPTOR USEFUL FOR THE TREATMENT OF DISORDERS RELATED THERETO” (priority 2006, published 2010).
